Measured values published in PMC8909834, “An Orally Bioavailable and Highly Efficacious Inhibitor of CDK9/FLT3 for the Treatment of Acute Myeloid Leukemia” (Cancers, 2022).

Key:
Assay in all cases: Kinase Hotspot radiolabel assay
Type in all cases: biochemical
Settings in all cases: read-out: % Residual Activity
[1] = molecular target: T1, ALK (Homo sapiens, UniProt Q9UM73)
T1 construct: purchased Reaction Biology Corporation (Kinase HotSpot)
Method in brief: (§1)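 Inhibition measured by a radiolabel Hotspot kinase assay as part of a 369-kinase specificity panel, with the compound at 1 µM. Kinases inhibited by more than 90% went on to Ki determination.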

[2] = molecular target: T2, ARAF (Homo sapiens, UniProt P10398)
T2 construct: purchased Reaction Biology Corporation (Kinase HotSpot)
Method in brief: as §1

[3] = molecular target: T3, ASK1/MAP3K5 (Homo sapiens, UniProt Q99683)
T3 construct: purchased Reaction Biology Corporation (Kinase HotSpot)
Method in brief: as §1

[4] = molecular target: T4, BRSK2 (Homo sapiens, UniProt Q8IWQ3)
T4 construct: purchased Reaction Biology Corporation (Kinase HotSpot)
Method in brief: as §1

[5] = molecular target: T5, CAMK2a (Homo sapiens, UniProt Q9UQM7)
T5 construct: purchased Reaction Biology Corporation (Kinase HotSpot)
Method in brief: as §1

[6] = molecular target: T6, CDK4/cyclin D1 (Homo sapiens, UniProt P11802)
T6 construct: purchased Reaction Biology Corporation (Kinase HotSpot)
Method in brief: as §1

[7] = molecular target: T7, CDK5/p35 (Homo sapiens, UniProt Q00535)
T7 construct: purchased Reaction Biology Corporation (Kinase HotSpot)
Method in brief: as §1

[8] = molecular target: T8, CDK6/cyclin D1 (Homo sapiens, UniProt Q00534)
T8 construct: purchased Reaction Biology Corporation (Kinase HotSpot)
Method in brief: as §1

[9] = molecular target: T9, COT1/MAP3K8 (Homo sapiens, UniProt P41279)
T9 construct: purchased Reaction Biology Corporation (Kinase HotSpot)
Method in brief: as §1

[10] = molecular target: T10, CTK/MATK (Homo sapiens, UniProt P42679)
T10 construct: purchased Reaction Biology Corporation (Kinase HotSpot)
Method in brief: as §1

[11] = molecular target: T11, DYRK1B (Homo sapiens, UniProt Q9Y463)
T11 construct: purchased Reaction Biology Corporation (Kinase HotSpot)
Method in brief: as §1

[12] = molecular target: T12, DYRK4 (Homo sapiens, UniProt Q9NR20)
T12 construct: purchased Reaction Biology Corporation (Kinase HotSpot)
Method in brief: as §1

[13] = molecular target: T13, GRK3 (Homo sapiens, UniProt P35626)
T13 construct: purchased Reaction Biology Corporation (Kinase HotSpot)
Method in brief: as §1

[14] = molecular target: T14, GRK4 (Homo sapiens, UniProt P32298)
T14 construct: purchased Reaction Biology Corporation (Kinase HotSpot)
Method in brief: as §1

[15] = molecular target: T15, JNK2 (Homo sapiens, UniProt P45984)
T15 construct: purchased Reaction Biology Corporation (Kinase HotSpot)
Method in brief: as §1

[16] = molecular target: T16, LIMK1 (Homo sapiens, UniProt P53667)
T16 construct: purchased Reaction Biology Corporation (Kinase HotSpot)
Method in brief: as §1

[17] = molecular target: T17, MARK2/PAR-1Ba (Homo sapiens, UniProt Q7KZI7)
T17 construct: purchased Reaction Biology Corporation (Kinase HotSpot)
Method in brief: as §1

[18] = molecular target: T18, MEKK3 (Homo sapiens, UniProt Q99759)
T18 construct: purchased Reaction Biology Corporation (Kinase HotSpot)
Method in brief: as §1

[19] = molecular target: T19, MST1/STK4 (Homo sapiens, UniProt Q13043)
T19 construct: purchased Reaction Biology Corporation (Kinase HotSpot)
Method in brief: as §1

[20] = molecular target: T20, MYLK4 (Homo sapiens, UniProt Q86YV6)
T20 construct: purchased Reaction Biology Corporation (Kinase HotSpot)
Method in brief: as §1

[21] = molecular target: T21, NEK2 (Homo sapiens, UniProt P51955)
T21 construct: purchased Reaction Biology Corporation (Kinase HotSpot)
Method in brief: as §1

[22] = molecular target: T22, PIM1 (Homo sapiens, UniProt P11309)
T22 construct: purchased Reaction Biology Corporation (Kinase HotSpot)
Method in brief: as §1

[23] = molecular target: T23, PLK4/SAK (Homo sapiens, UniProt O00444)
T23 construct: purchased Reaction Biology Corporation (Kinase HotSpot)
Method in brief: as §1

[24] = molecular target: T24, RET (Homo sapiens, UniProt P07949)
T24 construct: purchased Reaction Biology Corporation (Kinase HotSpot)
Method in brief: as §1

[25] = molecular target: T25, ROS/ROS1 (Homo sapiens, UniProt P08922)
T25 construct: purchased Reaction Biology Corporation (Kinase HotSpot)
Method in brief: as §1

[26] = molecular target: T26, RSK2 (Homo sapiens, UniProt P51812)
T26 construct: purchased Reaction Biology Corporation (Kinase HotSpot)
Method in brief: as §1

[27] = molecular target: T27, SGK3/SGKL (Homo sapiens, UniProt Q96BR1)
T27 construct: purchased Reaction Biology Corporation (Kinase HotSpot)
Method in brief: as §1

[28] = molecular target: T28, TRKC (Homo sapiens, UniProt Q16288)
T28 construct: purchased Reaction Biology Corporation (contract assay)
Method in brief: as §1

[29] = molecular target: T29, TTBK1 (Homo sapiens, UniProt Q5TCY1)
T29 construct: purchased Reaction Biology Corporation (Kinase HotSpot)
Method in brief: as §1

[30] = molecular target: T30, ULK1 (Homo sapiens, UniProt O75385)
T30 construct: purchased Reaction Biology Corporation (Kinase HotSpot)
Method in brief: as §1

T25 sequence (P08922 28-2347): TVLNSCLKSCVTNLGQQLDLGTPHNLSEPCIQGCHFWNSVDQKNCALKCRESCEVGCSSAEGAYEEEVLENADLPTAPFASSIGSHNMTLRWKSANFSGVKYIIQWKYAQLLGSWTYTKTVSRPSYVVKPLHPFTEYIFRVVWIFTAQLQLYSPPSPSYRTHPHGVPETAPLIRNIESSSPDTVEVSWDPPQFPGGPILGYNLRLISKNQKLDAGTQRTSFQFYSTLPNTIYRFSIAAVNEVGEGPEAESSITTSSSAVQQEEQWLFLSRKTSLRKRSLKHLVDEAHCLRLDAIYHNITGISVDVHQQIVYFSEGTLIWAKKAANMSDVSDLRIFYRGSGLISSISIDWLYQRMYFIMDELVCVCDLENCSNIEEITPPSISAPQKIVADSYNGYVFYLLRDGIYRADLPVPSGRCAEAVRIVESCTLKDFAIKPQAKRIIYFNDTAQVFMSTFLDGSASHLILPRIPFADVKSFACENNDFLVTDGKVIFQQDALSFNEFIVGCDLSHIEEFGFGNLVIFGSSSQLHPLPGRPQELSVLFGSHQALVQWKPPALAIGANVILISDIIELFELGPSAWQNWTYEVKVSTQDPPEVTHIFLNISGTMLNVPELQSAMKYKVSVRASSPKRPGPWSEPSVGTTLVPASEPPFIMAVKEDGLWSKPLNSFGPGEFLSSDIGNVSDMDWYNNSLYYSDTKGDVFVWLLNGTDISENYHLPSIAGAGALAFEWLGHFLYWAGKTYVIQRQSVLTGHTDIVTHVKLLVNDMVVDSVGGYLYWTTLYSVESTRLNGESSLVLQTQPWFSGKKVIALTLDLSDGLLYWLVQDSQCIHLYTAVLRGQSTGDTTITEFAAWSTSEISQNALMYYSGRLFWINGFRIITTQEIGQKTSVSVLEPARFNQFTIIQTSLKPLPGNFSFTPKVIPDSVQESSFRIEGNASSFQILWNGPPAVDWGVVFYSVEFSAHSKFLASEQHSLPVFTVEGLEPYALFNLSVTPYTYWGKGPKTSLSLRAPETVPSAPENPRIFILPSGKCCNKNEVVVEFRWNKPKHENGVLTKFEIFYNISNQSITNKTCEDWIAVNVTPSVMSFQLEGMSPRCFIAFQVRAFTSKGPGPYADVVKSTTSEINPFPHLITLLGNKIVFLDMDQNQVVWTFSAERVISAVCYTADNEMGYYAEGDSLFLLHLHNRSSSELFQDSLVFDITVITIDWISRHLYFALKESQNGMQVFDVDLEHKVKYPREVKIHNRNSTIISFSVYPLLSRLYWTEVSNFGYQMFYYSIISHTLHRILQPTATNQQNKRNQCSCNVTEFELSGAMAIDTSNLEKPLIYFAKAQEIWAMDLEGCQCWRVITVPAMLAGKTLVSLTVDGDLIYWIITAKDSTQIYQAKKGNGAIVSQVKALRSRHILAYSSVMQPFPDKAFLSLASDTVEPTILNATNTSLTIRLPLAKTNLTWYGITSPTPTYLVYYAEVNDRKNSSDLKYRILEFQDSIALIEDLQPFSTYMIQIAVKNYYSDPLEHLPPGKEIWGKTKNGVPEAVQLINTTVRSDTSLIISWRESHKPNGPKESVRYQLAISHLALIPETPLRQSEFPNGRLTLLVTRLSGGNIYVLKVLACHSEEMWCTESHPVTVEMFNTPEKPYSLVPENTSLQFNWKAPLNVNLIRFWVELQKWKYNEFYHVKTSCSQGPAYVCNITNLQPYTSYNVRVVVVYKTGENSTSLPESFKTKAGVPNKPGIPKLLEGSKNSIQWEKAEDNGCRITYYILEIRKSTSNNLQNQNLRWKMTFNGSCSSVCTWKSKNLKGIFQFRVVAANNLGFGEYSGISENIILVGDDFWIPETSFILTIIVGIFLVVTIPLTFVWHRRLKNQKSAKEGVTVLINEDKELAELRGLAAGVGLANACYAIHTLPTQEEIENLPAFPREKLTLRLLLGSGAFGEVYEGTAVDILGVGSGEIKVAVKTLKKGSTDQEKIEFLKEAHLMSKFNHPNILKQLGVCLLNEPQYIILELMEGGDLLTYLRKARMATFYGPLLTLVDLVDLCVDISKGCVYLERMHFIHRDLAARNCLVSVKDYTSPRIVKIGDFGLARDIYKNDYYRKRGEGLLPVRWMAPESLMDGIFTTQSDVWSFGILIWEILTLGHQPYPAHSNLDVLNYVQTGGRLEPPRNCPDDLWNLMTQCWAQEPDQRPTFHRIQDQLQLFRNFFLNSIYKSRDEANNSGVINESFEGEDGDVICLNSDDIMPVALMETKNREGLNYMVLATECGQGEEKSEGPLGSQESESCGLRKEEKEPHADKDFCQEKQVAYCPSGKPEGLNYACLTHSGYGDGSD
T17 sequence (Q7KZI7 whole entry): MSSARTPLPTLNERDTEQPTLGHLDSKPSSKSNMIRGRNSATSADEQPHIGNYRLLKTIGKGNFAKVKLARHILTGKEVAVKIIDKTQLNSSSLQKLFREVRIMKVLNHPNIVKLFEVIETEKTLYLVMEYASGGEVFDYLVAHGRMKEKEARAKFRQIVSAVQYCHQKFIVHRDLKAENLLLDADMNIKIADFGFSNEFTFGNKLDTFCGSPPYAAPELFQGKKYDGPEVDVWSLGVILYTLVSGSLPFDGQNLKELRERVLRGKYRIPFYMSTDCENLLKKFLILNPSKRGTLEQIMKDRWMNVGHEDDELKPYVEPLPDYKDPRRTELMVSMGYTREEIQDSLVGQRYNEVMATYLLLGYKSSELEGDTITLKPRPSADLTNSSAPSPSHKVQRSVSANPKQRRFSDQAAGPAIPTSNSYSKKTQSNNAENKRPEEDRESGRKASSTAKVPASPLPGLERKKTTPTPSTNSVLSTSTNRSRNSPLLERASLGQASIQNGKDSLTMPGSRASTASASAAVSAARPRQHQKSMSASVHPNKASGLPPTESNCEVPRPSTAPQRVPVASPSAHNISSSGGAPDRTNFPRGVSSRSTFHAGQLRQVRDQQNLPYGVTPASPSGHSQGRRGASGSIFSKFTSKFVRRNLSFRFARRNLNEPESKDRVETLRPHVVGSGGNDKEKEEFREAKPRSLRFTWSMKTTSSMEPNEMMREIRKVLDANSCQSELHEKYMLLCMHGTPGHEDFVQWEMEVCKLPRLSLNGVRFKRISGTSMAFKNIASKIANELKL
T9 sequence (P41279 whole entry): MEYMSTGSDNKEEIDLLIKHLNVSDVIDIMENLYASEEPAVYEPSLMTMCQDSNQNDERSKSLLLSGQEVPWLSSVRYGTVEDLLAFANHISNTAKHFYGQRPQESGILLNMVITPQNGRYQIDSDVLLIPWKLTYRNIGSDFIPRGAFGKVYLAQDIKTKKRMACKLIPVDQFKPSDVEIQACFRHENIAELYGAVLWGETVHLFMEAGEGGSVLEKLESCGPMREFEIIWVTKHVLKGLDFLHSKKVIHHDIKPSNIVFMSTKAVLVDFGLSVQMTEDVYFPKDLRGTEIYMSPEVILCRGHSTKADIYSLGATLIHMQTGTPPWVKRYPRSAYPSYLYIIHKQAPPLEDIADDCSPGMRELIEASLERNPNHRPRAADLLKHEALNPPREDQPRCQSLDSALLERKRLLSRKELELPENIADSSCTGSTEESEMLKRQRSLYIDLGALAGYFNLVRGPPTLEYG
T6 sequence (P11802 whole entry): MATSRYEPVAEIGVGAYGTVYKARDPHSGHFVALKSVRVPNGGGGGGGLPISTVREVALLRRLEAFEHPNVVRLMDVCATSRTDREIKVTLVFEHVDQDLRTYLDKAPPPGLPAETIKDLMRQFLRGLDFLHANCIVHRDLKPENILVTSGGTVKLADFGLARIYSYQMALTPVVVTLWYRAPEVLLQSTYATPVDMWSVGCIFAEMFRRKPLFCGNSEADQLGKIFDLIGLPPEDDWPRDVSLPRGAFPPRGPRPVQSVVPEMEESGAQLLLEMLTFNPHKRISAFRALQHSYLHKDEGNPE
T6 sequence (P24385 whole entry partner): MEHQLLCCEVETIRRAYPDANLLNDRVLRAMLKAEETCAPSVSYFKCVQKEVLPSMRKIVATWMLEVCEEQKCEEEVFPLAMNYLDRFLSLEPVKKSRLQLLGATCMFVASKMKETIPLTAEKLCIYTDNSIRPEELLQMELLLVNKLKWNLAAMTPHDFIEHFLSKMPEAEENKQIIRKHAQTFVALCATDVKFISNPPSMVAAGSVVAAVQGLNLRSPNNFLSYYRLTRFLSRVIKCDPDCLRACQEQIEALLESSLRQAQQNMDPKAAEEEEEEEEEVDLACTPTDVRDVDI
T22 sequence (P11309 whole entry): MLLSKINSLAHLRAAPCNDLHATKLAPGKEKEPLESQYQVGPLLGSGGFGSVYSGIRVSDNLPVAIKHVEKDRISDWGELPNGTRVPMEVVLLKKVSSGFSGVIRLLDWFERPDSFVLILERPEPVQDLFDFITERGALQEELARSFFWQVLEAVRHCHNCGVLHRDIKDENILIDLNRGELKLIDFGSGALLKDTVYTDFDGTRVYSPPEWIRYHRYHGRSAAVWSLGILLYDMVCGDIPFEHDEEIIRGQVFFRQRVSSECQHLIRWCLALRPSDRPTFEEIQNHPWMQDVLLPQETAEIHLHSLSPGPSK
T10 sequence (P42679 whole entry): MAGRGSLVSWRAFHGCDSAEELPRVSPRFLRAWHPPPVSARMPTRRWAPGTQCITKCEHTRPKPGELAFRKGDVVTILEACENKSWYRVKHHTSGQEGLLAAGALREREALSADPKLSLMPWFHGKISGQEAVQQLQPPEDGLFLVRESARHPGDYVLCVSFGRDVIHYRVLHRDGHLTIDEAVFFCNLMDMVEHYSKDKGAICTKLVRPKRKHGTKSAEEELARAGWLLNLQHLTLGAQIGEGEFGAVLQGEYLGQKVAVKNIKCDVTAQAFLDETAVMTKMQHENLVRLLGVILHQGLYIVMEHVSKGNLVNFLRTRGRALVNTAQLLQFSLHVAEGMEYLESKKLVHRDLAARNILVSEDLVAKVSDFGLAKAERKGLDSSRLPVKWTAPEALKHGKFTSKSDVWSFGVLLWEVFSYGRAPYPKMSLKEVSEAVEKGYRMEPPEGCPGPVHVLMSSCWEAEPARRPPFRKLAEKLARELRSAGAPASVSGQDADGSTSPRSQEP

**Q.** How did the remaining activity at 1 µM [1] turn out when Cc1cnc(N[C@H]2CC[C@H](N)CC2)nc1-c1cnc2ccc(-c3ccccc3)cn12 [CDDD11-8] was run?
**A.** Its remaining activity at 1 µM is 68.9%.

**Q.** And the remaining activity at 1 µM [2]?
**A.** Its remaining activity at 1 µM is 91.5%.

**Q.** And the remaining activity at 1 µM [3]?
**A.** Its remaining activity at 1 µM is 90.2%.

**Q.** What about the remaining activity at 1 µM [4] of the same compound?
**A.** Its remaining activity at 1 µM is 96.5%.

**Q.** And the remaining activity at 1 µM [5]?
**A.** The remaining activity at 1 µM was 20.3%.

**Q.** What about the remaining activity at 1 µM [6] of the same compound?
**A.** The remaining activity at 1 µM was 89.3%.

**Q.** And the remaining activity at 1 µM [7]?
**A.** Its remaining activity at 1 µM is 84.5%.

**Q.** And the remaining activity at 1 µM [8]?
**A.** The remaining activity at 1 µM was 80.7%.

**Q.** And the remaining activity at 1 µM [9]?
**A.** Its remaining activity at 1 µM is 101%.

**Q.** What about the remaining activity at 1 µM [10] of the same compound?
**A.** Its remaining activity at 1 µM is 123%.

**Q.** What about the remaining activity at 1 µM [11] of the same compound?
**A.** Its remaining activity at 1 µM is 22.2%.

**Q.** And the remaining activity at 1 µM [12]?
**A.** The remaining activity at 1 µM was 93.6%.

**Q.** And the remaining activity at 1 µM [13]?
**A.** Its remaining activity at 1 µM is 91.9%.

**Q.** And the remaining activity at 1 µM [14]?
**A.** The remaining activity at 1 µM was 98.2%.

**Q.** And the remaining activity at 1 µM [15]?
**A.** The remaining activity at 1 µM was 103%.

**Q.** What about the remaining activity at 1 µM [16] of the same compound?
**A.** Its remaining activity at 1 µM is 12.9%.

**Q.** What about the remaining activity at 1 µM [17] of the same compound?
**A.** Its remaining activity at 1 µM is 23.1%.

**Q.** What about the remaining activity at 1 µM [18] of the same compound?
**A.** Its remaining activity at 1 µM is 109%.

**Q.** What about the remaining activity at 1 µM [19] of the same compound?
**A.** Its remaining activity at 1 µM is 8.89%.

**Q.** What about the remaining activity at 1 µM [20] of the same compound?
**A.** The remaining activity at 1 µM was 11.5%.

**Q.** And the remaining activity at 1 µM [21]?
**A.** The remaining activity at 1 µM was 90.7%.

**Q.** And the remaining activity at 1 µM [22]?
**A.** The remaining activity at 1 µM was 65%.

**Q.** And the remaining activity at 1 µM [23]?
**A.** Its remaining activity at 1 µM is 89.3%.

**Q.** And the remaining activity at 1 µM [24]?
**A.** Its remaining activity at 1 µM is 84.4%.

**Q.** And the remaining activity at 1 µM [25]?
**A.** The remaining activity at 1 µM was 41.5%.

**Q.** And the remaining activity at 1 µM [26]?
**A.** The remaining activity at 1 µM was 71%.

**Q.** What about the remaining activity at 1 µM [27] of the same compound?
**A.** The remaining activity at 1 µM was 115%.

**Q.** And the remaining activity at 1 µM [28]?
**A.** Its remaining activity at 1 µM is 1.95%.

**Q.** And the remaining activity at 1 µM [29]?
**A.** The remaining activity at 1 µM was 89.5%.

**Q.** And the remaining activity at 1 µM [30]?
**A.** Its remaining activity at 1 µM is 108%.
